Measured values as given in patent USH1168H, “Inhibitors of protein kinase C activity as protectors against septic shock and reducers of ARDS” (priority 1991, dated 1993).
Entries after “also recorded” stand apart in the source; their conditions may differ.

What was measured:
[1] = tested on: rat aortic rings; assay: KCl-induced contraction of rat aortic rings after 16 h incubation with phorbol dibutyrate; format: cell-based; settings: for EC50: Rattus norvegicus, 16 h
Procedure: (§1) (Panel B) Contraction to KCl by rings incubated and denoted with the same symbols as detailed above. Four rings were prepared from each rat and one ring allocated into each medium formulation to evaluate responses to NE. Rings were similarly prepared to determine responses to KCl. Data presented as in FIG. 1. N=6 rats apiece for assessment of responses to NE and KCl.
(§2) (Panel B) Contraction to KCl by rings incubated and denoted with the same symbols as detailed above. Four rings were prepared from each rat and one ring allocated into each medium formulation. Data is presented as in FIG. 1. N=8 rats for assessment of responses to both NE and KCl.
(§3) Tissue preparation and incubation. Male Sprague-Dawley rats (250-350 g, Taconic Farms, Germantown, N.Y.) were used. Rat thoracic aortic rings were prepared and incubated as detailed by McKenna (14). In brief, 4 or 6 rings were prepared from each rat. Care was taken during dissection to maintain the patency of the endothelium. Some aortas were de-endothelialized before sectioning into rings by perfusion with phosphate buffered saline (PBS) containing 1% deoxycholate for 30 sec followed by a PBS and bubble rinse for 5 min. Rings were incubated in DME (Dulbecco's Modified Eagle's medium) supplemented with 1% fetal calf serum, 100 μg/ml streptomycin, and 100 U/ml penicillin. During incubation, the rings were exposed to combinations of LPS (10 or 35 ng/ml), H7 (25 μM), HA1004 (N-(2-guanidinoethyl)-5-isoquinolinesulfonamide) (25 μM), sphingosine (20 μM), or their vehicles. […] Rings used in measures of contractile performance were placed individually in Petri dishes containing 1.2 ml DME and were distributed so that tissue isolated from each aorta was allocated to every combination of treatments within an experiment. […] All tissue isolated from an aorta (six rings) was allocated to a single treatment. The media and rings were rotated gently for 16-18 hr in an incubator at 37° C. under a 95% O2 -5% CO2 atmosphere.
(§4) Measurement of aortic ring contraction. After incubation, rings were mounted in tissue baths, equilibrated, and pre-contracted as previously detailed (14). These procedures required approximately 90 min. Rings were maintained in Krebs Ringer Bicarbonate buffer (KRB, 14). Contractions by six or eight rings were measured simultaneously and recorded on multichannel strip chart recorders. […] Other rings were contracted by withdrawing KRB from the tissue baths and adding increasing volumes of a high KCl KRB (120 mM, made by equimolar substitution of KCl for NaCl) to the baths to yield final KCl concentrations of 10 to 80 mM. All rings were blotted and weighed after experiments were completed.
(§5) Statistics. […] Tests for differences between EC50 values were based on log EC50 values (17). EC50 values were then converted to […] means to allow expression as nanomolar concentrations. Examination of differences among four or six treatment means was by randomized blocks analysis of variance; if significant differences were present, then pairs of means were tested by Student-Newman-Keuls a posteriori tests (18). Paired t-tests were used to assess differences between two treatment means. […] Differences with probabilities of 0.05 or less were accepted as significant. All data are expressed as means±SEM.

[2] = tested on: rat aortic rings; assay: NE-induced contraction of rat aortic rings after 16 h incubation with phorbol dibutyrate; format: cell-based; parameters: contractions to NE; vascular suppression: dose or concentration left out as unconfirmed; settings: for EC50: Rattus norvegicus, 16 h
Procedure: as §1, §2, §3, §4, §5

[3] = tested on: rat aortic rings; assay: Direct contraction of rat aortic rings by phorbol dibutyrate; format: cell-based; parameters: Emax: dose or concentration left out as unconfirmed; settings: for EC50: read-out: EC50 for contraction by PDB
Procedure: Four rings were prepared from each rat and one ring allocated into each medium formulation. Data is presented as in FIG. 1.
as §3, §4, §5

[4] = tested on: intact endothelium rat aortic rings; assay: NE-induced contraction of intact rat aortic rings after 16 h incubation with LPS and/or PKC inhibitors; format: cell-based; settings: for EC50: Rattus norvegicus, 16 h, intact endothelium, read-out: EC50 value for NE stimulated contraction (EC50 of the agonist NE)
Procedure: FIG. 1 is a graph showing contraction to cumulative doses of NE by rat aortic rings incubated for 16 hr in combinations of control, LPS (endotoxin or lipopolysaccharide), H7, and N-(2-guanidinoethyl)-5-isoquinolinesulfonamide (HA1004; a negative control for H7) treated media. (Panel A) Responses by rings incubated in medium only (open circles), medium plus H7 (25 μM, closed circles), medium containing LPS (10 ng/ml, open triangles), and medium containing LPS plus H7 (closed triangles). (Panel B) For clarity in presentation, responses by rings incubated in medium only (open circles) and LPS treated medium (open triangles) are reproduced from Panel A. Additional rings were incubated in medium plus HA1004 (25 μM, closed circles), and medium containing LPS plus HA1004 (closed triangles). Six rings were prepared from each rat and one ring allocated into each medium formulation. […] The curves are the best fit of the data by nonlinear least squares to a polynomial model. N=8 rats.
as §3, §4, §5

[5] = tested on: endothelial cells; settings: literature (1, 2); cited from earlier work
[6] = tested on: platelets; settings: pretreatment; stimulation with thrombin, OAG, linoleic or linolelaidic acid (25); cited from earlier work
[7] = tested on: endothelial cells; settings: literature (3); cited from earlier work
[8] = tested on: deendothelialized rat aortas; settings: literature (26); cited from earlier work
[9] = tested on: intact endothelium rat aortic rings; assay: KCl-induced contraction of intact rat aortic rings after 16 h incubation with LPS and/or PKC inhibitors; format: cell-based; settings: for EC50: Rattus norvegicus, 16 h, intact endothelium, read-out: EC50 value for KCl stimulated contraction (EC50 of the agonist KCl)
Procedure: FIG. 2 is a graph showing contraction to cumulative doses of KCl by rat aortic rings incubated for 16 hr in combinations of control, LPS, H7, and HA1004 treated media. (Panel A) Response by rings incubated in medium only (open circles), medium plus H7 (25 μM, closed circles), medium containing LPS (10 ng/ml, open triangles), and medium containing LPS plus H7 (closed triangles). (Panel B) For clarity in presentation, responses by rings incubated in medium only (open circles) and LPS treated medium (open triangles) are reproduced from Panel A. Additional rings were incubated in medium plus HA1004 (25 μM, closed circles), and medium containing LPS plus HA1004 (closed triangles). Rings were prepared and data is presented as described in FIG. 1. N=6 rats.
as §3, §4, §5

[10] = tested on: human neutrophils; settings: PMA alone (31); cited from earlier work
[11] = tested on: Rabbit aortic smooth muscle cells; settings: literature (29); cited from earlier work
[12] = tested on: Rabbit aortic smooth muscle cells; settings: literature; cited from earlier work
[13] = tested on: PKC; settings: literature (33,34); cited from earlier work
[14] = LPS 10 ng/ml plus inhibitor 25 μM
[15] = LPS-treated media (10 ng/ml), alone or plus inhibitor 25 μM
[16] = control media (no LPS) plus inhibitor 25 μM
[17] = inhibitor 25 μM by itself, no LPS

## CCCC(=O)O[C@@H]1[C@@H](C)[C@@]2(O)[C@@H](C=C(CO)C[C@@]3(O)C(=O)C(C)=C[C@@H]23)[C@@H]2C(C)(C)[C@]12OC(=O)CCC [4α-PDB, 4-α-phorbol-12,13-dibutyrate]
[1]; 10 μM 4α-PDB
  alterations in EC50 values for KCl: no significant alterations in EC50 values for the agonists
  contractions to KCl: significantly impaired contractions to NE and KCl
[1]; read-out: EC50 value for KCl contraction (EC50 of the agonist KCl), rings incubated with 4α-PDB 10.0 μM, 16 h
  EC50: 28000 µM
[2]
  contractions to NE; vascular suppression: significantly impaired contractions to NE and KCl; also recorded: equally effective at causing vascular suppression
[2]; 10 μM 4α-PDB
  alterations in EC50 values for NE: no significant alterations in EC50 values for the agonists
[2]; read-out: EC50 value for NE contraction (EC50 of the agonist NE), rings incubated with 4α-PDB 10.0 μM, 16 h
  EC50: 0.286 µM
[3]; concentrations up to 10 μM (data not shown)
  contraction of aortic rings by 4α-PDB itself: could not contract aortic rings at concentrations up to 10 μM

## CC1CNCCN1S(=O)(=O)c1cccc2cnccc12 (stereo not shown) [H7, 1-(5-isoquinolinylsulfonyl)-2-methyl piperazine]
[4]; [14]
  EC50 and Emax (sensitivity and maximum contraction) to NE versus control tissue: not significantly different from control tissue
[4]; [15]
  EC50: 0.099 µM
[4]; [16]
  EC50: 0.051 ± 0.015 µM
[4]; co-incubation, inhibitor 25 μM, LPS 10 ng/ml
  blocking of LPS effects on contraction to NE: blocked
[4]; [17]
  contractile function / sensitivity to NE: little change in contractile function
[4]; intact rings, H7 25 μM
  abrogation of LPS effects on contractile function: clearly abrogated the majority of the deleterious effects of LPS on rat aortic tissue contractile function
[5]
  adhesive proteins on endothelial cell surfaces: reduced
[6]
  platelet aggregation after stimulation: blocked
[7]
  endothelial cell permeability response to inflammatory agents: abrogated
[8]
  blocking of PDB induced contraction: ineffective blocker of PDB induced contraction
  inhibition of KCl elicited contraction: significantly inhibits KCl elicited contraction
[9]; [14]
  EC50 and Emax values to KCl versus control tissue: did not vary significantly from control tissue
  protection against LPS-induced contractile dysfunction (KCl): shielded the tissue from LPS-induced contractile dysfunction
[9]; [15]
  EC50: 32000 µM
[9]; [16]
  EC50: 28000 ± 1000 µM
[9]; [17]
  maximum contraction to KCl: significant increases in maximum contraction
  sensitivity to KCl: no enhancement in sensitivity to KCl

## CCCC(=O)O[C@@H]1[C@@H](C)[C@@]2(O)[C@@H](C=C(CO)C[C@]3(O)C(=O)C(C)=C[C@@H]23)[C@@H]2C(C)(C)[C@]12OC(=O)CCC [PDB, 4β-phorbol-12,13-dibutyrate]
[1]; read-out: EC50 value for KCl contraction (EC50 of the agonist KCl), rings incubated with 4β-PDB 0.1 μM, 16 h
  EC50: 22000 µM
[1]; read-out: EC50 value for KCl contraction (EC50 of the agonist KCl), rings incubated with 4β-PDB 1.0 μM, 16 h
  EC50: 27000 µM
[1]; read-out: EC50 value for KCl contraction (EC50 of the agonist KCl), rings incubated with 4β-PDB 10.0 μM, 16 h
  EC50: 36000 µM
[2]; read-out: EC50 value for NE contraction (EC50 of the agonist NE), rings incubated with 4β-PDB 0.1 μM, 16 h
  EC50: 0.056 µM
[2]; read-out: EC50 value for NE contraction (EC50 of the agonist NE), rings incubated with 4β-PDB 1.0 μM, 16 h
  EC50: 0.184 µM
[2]; read-out: EC50 value for NE contraction (EC50 of the agonist NE), rings incubated with 4β-PDB 10.0 μM, 16 h
  EC50: 0.283 µM
[3]; Rattus norvegicus, 16 h
  EC50: 0.041 ± 0.003 µM
[3]; Rattus norvegicus
  EC50: 0.032 ± 0.004 µM
[3]; Rattus norvegicus, read-out: maximum contraction caused by PDB
  Emax: > 90%

## CCCCCCCCCCCCCC(=O)O[C@@H]1[C@@H](C)[C@@]2(O)[C@@H](C=C(CO)C[C@]3(O)C(=O)C(C)=C[C@@H]23)[C@@H]2C(C)(C)[C@]12OC(C)=O [PMA]
[10]
  synthesis of PAF or LTB4: could not cause synthesis of either PAF or LTB4

## CCCCCCCCCCCCCC(=O)O[C@@H]1[C@@H](C)[C@@]2(O)[C@@H](C=C(CO)C[C@]3(O)C(=O)C(C)=C[C@@H]23)[C@@H]2C(C)(C)[C@]12OC(C)=O [TPA]
[11]
  whole blood serum induced intracellular Ca^2+ mobilization: inhibits whole blood serum induced intracellular Ca^2+ mobilization
[12]
  cell proliferation: modulates cell proliferation

## CN[C@@H]1C[C@H]2O[C@@](C)([C@@H]1OC)n1c3ccccc3c3c4c(c5c6ccccc6n2c5c31)C(=O)NC4 [staurosporine]
[5]
  adhesive proteins on endothelial cell surfaces: reduced
[6]
  platelet aggregation after stimulation: blocked

## lipid A
[13]
  activation of PKC in vitro: can directly activate PKC in vitro

## polymyxin B
[6]
  platelet aggregation after stimulation: blocked
